# Where “and” joins values, the source holds several entries; their conditions need not be identical. Identical values can stand only once. Marks after values point to notes of the source that are not given here.
# Columns and labels:
# Type in all cases: in vivo
# [1] = system: soy; test: Drought resistance in soy (foliar spray); conditions: vs untreated control
# Procedure: (§1) The effectiveness of peptide treatment in reducing drought stress was assessed in […]. 3.5 inch pots were filled with Sunshine #1 soil (SunGro Horticulture), fertilized with a 20-10-20 mixture. The soil was soaked and drained overnight. Seeds (soy, manually inspected to ensure uniform seed size) were planted at a depth of half inch for germination. Plants were grown in a greenhouse under 16 hour light days at >70° F. and 8 hour dark nights at >65° F. Prior to drought conditions, the plants were well-watered.
# When the plants reached the growth stage when first trifoliate expanded, plants were culled to achieve a uniform height (abnormally large and small plants were removed). Plants were then randomly assigned to control (spray without peptide) or treatment (spray with peptide) groups and heights were measured. Peptide was made up in a solution of 0.2 μg/ml or 2μg/ml in distilled water+0.04% Tween-20, and applied as a fine mist from a spray bottle until the solution drips from the leaves. After the peptide solutions were dried, the plants were again randomized in a randomized complete block design. Cyclic drought stress was initiated after the peptide treatment. Plants were subjected to at least three drought cycles of drought stress (3-5 days of withholding water and 1 day irrigated with saturating amount of water) before harvesting.
# (§2) The drought test phase ended after 2-3 weeks. At that time, the plant height was again measured and the growth rate was calculated as the difference between this and the previously-recorded height. The above-ground part portions of the plants were harvested and weighed to obtain fresh weight. The above-ground portion was also dried in an oven at 70° C. for 72 hours to obtain dry weight. All calculations were compared with matched untreated control plants.
# The drought testing procedure was carried out in soy using a treatment of P12-2, P13-4, P13-5, P13-7, P13-3, P13-14, P13-2, and P13-15 (SEQ ID NOs: 6, 10, 11, 13, 9, 20, 8, and 21). Asterisks indicate statistical significance by P-value (*: P<0.1 and **: P<0.05)
# [2] = system: corn; test: Drought resistance in seed-coated corn; conditions: for Drought tolerance activity in corn, result in words: corn seed treatment; for % Change Dry Weight / % Change Fresh Weight: vs mock
# Procedure: The effectiveness of peptide treatment in reducing the effects of drought stress was assessed in corn using a seed treatment strategy. This strategy largely mirrors example 2, except that the seeds were coated with a peptide formulation rather than a foliar spray application.
# Seeds were first sieved using mesh screens to a uniform size (21-23/64 inches). The seeds were then coated with a mixture of peptide, Unicoat™ seed coat polymer, and a minimal volume of water in a Hege 11 Liquid Seed Treater (Wintersteiger) according to manufacturer recommendations. Seeds were coated with one of the following: (i) 0.12 μg peptide/seed, (ii) […], or (iii) a ‘mock’ treatment that included no peptide. The amount of peptide per seed assumes complete transfer of the peptide to seed surfaces in the seed coating chamber. Losses during coating were not considered.
# (§3) 3.5 inch pots were filled (approximately 0.2 L per pot) with Sunshine #1 mix (SunGro Horticulture), fertilized with 14-14-14 N,P,K Osmocote (Everris), and mixed for 20 minutes using a soil mixer M-5. Seeds were planted at a depth of 0.5 inch for germination. The pots were immediately irrigated by submergence then drained after about an hour. For each treatment group, 24 replicate seeds were planted. Plants were grown in a greenhouse under 16 hour light days at ˜75° F. and 8 hour dark nights at ˜65° F. Prior to drought conditions, the plants were well-watered.
# Three days after planting, the plants were randomized using a complete block design and subjected to a cyclic drought stress. Drought stress was imposed by withholding water for 2-3 days until the majority of plants were under medium to severe water stress. The severity of the stress was determined by the weight of the pot and visual determination of leaf curling. Once drought stress was attained, the pots were watered to full saturation. Full Saturation (100% pot capacity) is defined as the weight of the pot filled with water-saturated soil minus the weight of the filled pot prior to adding water. Drought stress was imposed for a total of 18 days.
# (§4) At the end of the experiment (18 days after initiation of drought stress), the plant was then harvested for fresh and dry weights. Individual plants were cut near the soil surface and weighed immediately (fresh weight). The plants were then placed into labeled brown paper bags and dried in a 70° C. oven for 72 hours. A dry weight was then obtained.
# The following calculation was performed on the collected data: Fresh weight at harvest and dry weight at harvest for the plants grown from peptide-treated seeds were expressed as a % change relative to the ‘mock’ treated plants.
# [3] = system: corn; test: Drought resistance in corn (foliar spray); conditions: corn, vs untreated control
# Procedure: as §1, with “(either corn or soy,” for “(soy,”, “1” for “half”
# When the plants reached the V1 stage, plants were culled to achieve a uniform height (abnormally large and small plants were removed). Plants were then randomly assigned to control (spray without peptide) or treatment (spray with peptide) groups and heights were measured. Peptide was made up in a solution of 0.2 μg/ml or 2μg/ml in distilled water+0.01% Tween-20, and applied as a fine mist from a spray bottle until the solution drips from the leaves. After the peptide solutions were dried, the plants were again randomized in a randomized complete block design. Drought stress was initiated after the peptide treatment. This was caused by maintaining the water level at 25-50% of the maximum capacity for water (capacity was decided as the weight of the pot filled with saturated soil minus the weight of the filled pot prior to adding water).
# as §2
# The drought testing procedure was carried out in corn using a treatment of P12, P13-10, P13-11, P13-12, P13-14, P13-4, and P13-15 (SEQ ID NOs: 5, 16, 17, 18, 20, 10, and 21). Asterisks indicate statistical significance by P-value (*: P<0.1 and **: P<0.05)
# [4] = system: tobacco mosaic virus (TMV); test: Induction of resistance to tobacco mosaic virus in tobacco (foliar spray); conditions: for Effectiveness Covered (% decline in TMV lesions vs UTC): covered leaf (systemic response); for Effectiveness Uncovered (% decline in TMV lesions vs UTC): uncovered leaf (local response)
# Procedure: Peptides were tested for the induction of resistance to tobacco mosaic virus (TMV) in tobacco. Briefly, three tobacco plants at 6-8 weeks old were selected per group (samples and controls). The bottom-most leaf of the plant was covered and the plant was sprayed with a solution of water (untreated control—UTC), peptide, or Proact (positive control). The spray was applied until the leaves were fully wetted, indicated by liquid dripping from the leaves. The plants were then allowed to dry and the leaf covering was removed.
# Three days post-treatment, the previously-covered leaf and a leaf on the opposite side of the plant were then lightly dusted with diatomaceous earth and 20 ul of a 1.7 μg/ml solution of purified tobacco mosaic virus was applied. The TMV solution was then spread across the leaf surface by lightly rubbing solution and the diatomaceous earth across the surface of the leaves. Two minutes after inoculation, the diatomaceous earth was rinsed off the leaves with water. 3 days after TMV inoculation, the leaves were scored based on the number of TMV lesions observed. The leaf was also scored for signs of the hypersensitive response, including yellowing and wilting of the affected leaves.
# Effectiveness described in Table 5 refers to the % decline in TMV lesions on treated vs UTC plants. A reduction of TMV on covered leaves indicates a systemic immune response in the plant while reduction on uncovered leaves indicates a local response. Asterisks indicate that the P-value derived from a T-test was <0.05.
# [5] = system: soy; test: Drought resistance in seed-treated soy; conditions: vs mock
# Procedure: The effectiveness of peptide treatment in reducing drought stress was assessed in soy using a seed treatment strategy. This strategy largely mirrors examples 3 and 4.
# Seeds were first sieved using mesh screens to a uniform size (14-17 mesh). The seeds were then coated with a mixture of peptide and Unicoat™ seed coat polymer in a Hege 11 Liquid Seed Treater (Wintersteiger) according to manufacturer recommendations. […]
# as §3
# Seven days after germination the heights of the plants were measured. This was determined as the distance between the soil surface and the shoot apical meristems (buds). The plants were randomized using a complete block design and subjected to a cyclic drought stress. Drought stress was imposed by withholding water for 3-4 days until the majority of plants were under medium to severe water stress. The severity of the stress was determined by the weight of the pot and visual determination of loss of turgor in the leaves (drooping). Once drought stress was attained, the pots were watered to full saturation. Full Saturation (100% pot capacity) is defined as the weight of the pot filled with water-saturated soil minus the weight of the filled pot prior to adding water. Drought stress was imposed for a total of 18 days.
# as §4, with “the plant above the soil surface was then” for “the plant was then”, “then obtained. The following calculation was performed on the collected data: Fresh weight at harvest, and dry weight at harvest for the peptide-treated plants were expressed as a % change relative to the ‘mock’ treated plants.” for “then obtained.”
# [6] = corn seed treatment 1.05 μg/seed
# [7] = corn seed treatment 0.12 μg/seed
Sequence,Dry Weight Increase ([1]; foliar spray 0.2 μg/ml),Fresh Weight Increase ([1]; foliar spray 0.2 μg/ml),Dry Weight Increase ([1]; foliar spray 2 μg/ml),Fresh Weight Increase ([1]; foliar spray 2 μg/ml),"Drought tolerance activity in corn, result in words [2]","% Change Dry Weight [2, 6]","% Change Fresh Weight [2, 6]","% Change Dry Weight [2, 7]","% Change Fresh Weight [2, 7]",other results
LSPLEQLMKIFADITQSLFEEEE (P13-5 peptide) [Peptide P13-5],6.93** %,12.23** %,4.36%,9.73** %,supported corn drought tolerance,5.07* %,5.66** %,,,
GQTSGMSPMEQLMKIFADITQSLFG (P13-15 peptide) [Peptide P13-15],,,2.07%,5.38* %,,,,,,Dry Weight Increase ([3]; foliar spray 0.2 μg/ml): 6.21%; Fresh Weight Increase ([3]; foliar spray 0.2 μg/ml): 2.92%
MSPMEQLMKIFADITQSLFEEEE (P13-4 peptide) [Peptide P13-4],4.45* %,7.75** %,,,,,,,,Dry Weight Increase ([3]; foliar spray 2 μg/ml): 0.06%; Fresh Weight Increase ([3]; foliar spray 2 μg/ml): −2.77%
QTGDDSLSGAGQTSGMSPMEQLMKIFADITQSLFGDQ (P13-13 peptide) [Peptide P13-13],,,,,,,,,,Effectiveness Covered (% decline in TMV lesions vs UTC) ([4]; 20 μg/ml spray): 38.5%; Effectiveness Uncovered (% decline in TMV lesions vs UTC) ([4]; 20 μg/ml spray): 36.6%
GDLQGSGASTQDTSGMSPMEQLMKIFADITQSLFGDQDG (P12-2 peptide) [Peptide P12-2],,,3.55%,7.83** %,,,,,,
TSGLSPLEQLLKIFADITQSLFG (P13-2 peptide) [Peptide P13-2],8.70** %,7.84** %,14.54** %,15.56** %,,0.38%,3.67%,,,
TSGLSPLEQLLKIFAEITQSLFG (P13-3 peptide) [Peptide P13-3],8.47** %,11.43** %,2.54% and 6.07** %,5.90** % and 13.61** %,,,,2.81%,1.49%,
QTGDDSLSGAGQTSGMSPMEQLMKIFADITQSLFG (P13-14 peptide) [Peptide P13-14],−3.68** %,−2.86%,,,,7.92** %,11.83** %,3.77%,9.11** %,Dry Weight Increase ([3]; foliar spray 2 μg/ml): 2.48%; Fresh Weight Increase ([3]; foliar spray 2 μg/ml): 4.36* %
AGQTSGMSPMEQLMKIFADITESLFGDQDG (P13-43 peptide) [Peptide P13-43],,,,,,6.73** %,5.04%,−0.75%,6.2* %,% Change Dry Weight ([5]; soy seed treatment 0.1 μg/seed): 2.37%; % Change Fresh Weight ([5]; soy seed treatment 0.1 μg/seed): 1.96%
SEEMSPMEQLMKIFADITQSLFEE (P13-36 peptide) [Peptide P13-36],,,,,supported corn drought tolerance,7.95** %,12.38** %,5.93** %,10.60** %,% Change Dry Weight ([5]; soy seed treatment 0.9 μg/seed): −4.78%; % Change Fresh Weight ([5]; soy seed treatment 0.9 μg/seed): 1.46%
MEEMEQLMKIFEEIEQELFEEEE (P13-37 peptide) [Peptide P13-37],,,,,preservation of activity,5.53** %,7.67** %,,,% Change Dry Weight ([5]; soy seed treatment 0.9 μg/seed): 0.48%; % Change Fresh Weight ([5]; soy seed treatment 0.9 μg/seed): 0.58%
QTGDDSLSGAGQTSGMSPMEQLMKIFADITQSLFGDQDG (P12 peptide) [Peptide P12],,,,,,,,,,Dry Weight Increase ([3]; foliar spray 2 μg/ml): 6.28** %; Fresh Weight Increase ([3]; foliar spray 2 μg/ml): 4.87* %; Effectiveness Covered (% decline in TMV lesions vs UTC) ([4]; 10 μg/ml spray): 66* %; Effectiveness Uncovered (% decline in TMV lesions vs UTC) ([4]; 10 μg/ml spray): 53* %
LEELEELLEIFEEIEEELFEE (P13-7 peptide) [Peptide P13-7],,,4.50* %,5.80* %,preservation of activity,,,4.77** %,5.6* %,

# — patent US20180362993A1, “ELICITOR-DERIVED PEPTIDES AND USE THEREOF” (Plant Health Care, Inc., priority 2017, published 2018)
